# From patent US20250154686A1, “COMPOUND LIBRARY” (CHUGAI SEIYAKU KABUSHIKI KAISHA, priority 2021, published 2025)
# Biological target: T1, Bcl-2 protein (Recombinant Human Bcl-2 Protein) (Homo sapiens, UniProt P10415)
# T1 construct: purchased Novus Biologicals NBP2-34889
# Assay: AS-MS evaluation of binding of the Example 4 mixture library (1200 compounds/well) to Bcl-2, ASMS ratio (%)
# Method in brief: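 A pooled 1200-compound mixture (20 nM each final) was incubated with 20 μM recombinant human Bcl-2 in pH 7.4 Tris-HCl buffer with NaCl, Tween-20 and DTT for 1 h at 23° C. in the dark. Bound ligands were separated by spin-column SEC and measured by reverse-phase LC/MS; ASMS ratio (%) was calculated against protein-free unfiltered standard and protein-free SEC blank.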
# [1] = replicate n = 1, mixture library, value belongs to the MS peak assigned to the compound
# [2] = replicate n = 2, mixture library, value belongs to the MS peak assigned to the compound
# [3] = AS-MS, Example 4 mixture library, Bcl-2, replicate n = 1
# [4] = AS-MS, Example 4 mixture library, Bcl-2, replicate n = 2
# [5] = AS-MS, mixture of 1200 compounds/well, Bcl-2 protein, replicate n = 2
# T1 sequence (P10415 whole entry): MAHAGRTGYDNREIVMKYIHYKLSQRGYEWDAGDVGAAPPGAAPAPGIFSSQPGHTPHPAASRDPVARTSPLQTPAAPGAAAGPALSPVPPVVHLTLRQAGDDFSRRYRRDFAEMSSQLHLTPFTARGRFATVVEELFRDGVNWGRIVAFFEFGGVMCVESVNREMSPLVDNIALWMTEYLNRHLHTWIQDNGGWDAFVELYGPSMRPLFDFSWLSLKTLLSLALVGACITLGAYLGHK
SMILES,ASMS ratio (%) n = 1 [1] [%],ASMS ratio (%) n = 2 [2] [%],ASMS ratio (%) n = 1 [3] [%],ASMS ratio (%) n = 2 [4] [%],also measured
"CCOc1cncc(-c2ccc(CN3CCN(c4ccc(C(=O)NS(C)(=O)=O)nn4)CC3)cc2F)c1 [Compound B2I078-01, 6-[4-[[4-(5-Ethoxypyridin-3-yl)-3-fluorophenyl]methyl]piperazin-1-yl]-N-methylsulfonylpyridazine-3-carboxamide]",0.0,0.0,–,–,–
CCOc1cncc(C#Cc2ccccc2C(=O)N2CCN(c3ccc(C(=O)NS(=O)(=O)C(C)(C)C)nn3)CC2)c1 [Compound B2L008-01],0.0,0.0,–,–,–
"CCOc1cncc(-c2csc(C(=O)N3CCN(c4ccc(C(=O)NS(=O)(=O)C(C)(C)C)nn4)CC3)c2)c1 [Compound B2L002-01, N-tert-Butylsulfonyl-6-[4-[4-(5-ethoxypyridin-3-yl)thiophene-2-carbonyl]piperazin-1-yl]pyridazine-3-carboxamide]",0.0,0.0,–,–,–
"CCOc1cccc(C#Cc2cncc(C(=O)N3CCN(c4ccc(C(=O)NS(=O)(=O)CCC(F)(F)F)nn4)CC3)c2)c1 [Compound B2N009-01, 6-[4-[5-[2-(3-Ethoxyphenyl)ethynyl]pyridine-3-carbonyl]piperazin-1-yl]-N-(3,3,3-trifluoropropylsulfonyl)pyridazine-3-carboxamide]",–,–,0.0,−0.4,–
"CCOc1cncc(-c2ccc(C(C)N3CCN(c4ccc(C(=O)NS(C)(=O)=O)cc4)CC3)cc2)c1 (stereo not drawn) [Compound B2I098-01, 4-[4-[1-[4-(5-Ethoxypyridin-3-yl)phenyl]ethyl]piperazin-1-yl]-N-methylsulfonylbenzamide]",0.0,0.0,–,–,–
CCCNC(=O)c1ccc(N2CCN(C(=O)c3ccccc3C#Cc3cncc(OCC)c3)CC2)nn1 [Compound B1M008-01],–,–,–,–,ASMS ratio (%) n = 2 [5]: 0.0%
"CCOc1cncc(-c2ccccc2CCC(=O)N2CCN(c3ccc(C(=O)NS(=O)(=O)CCC(F)(F)F)nn3)CC2)c1 [Compound B2N012-01, 6-[4-[3-[2-(5-Ethoxypyridin-3-yl)phenyl]propanoyl]piperazin-1-yl]-N-(3,3,3-trifluoropropylsulfonyl)pyridazine-3-carboxamide]",–,–,0.0,0.0,–
CCOc1cccc(-c2ccc(CN3CCN(c4ccc(C(=O)NS(=O)(=O)C(C)(C)C)nn4)CC3)c3ccccc23)c1 [Compound B2L091-01],–,–,0.0,0.0,–
"CCOc1cncc(-c2cc(CN3CCN(c4ccc(C(=O)NS(C)(=O)=O)cc4)CC3)cc(OC(F)(F)F)c2)c1 [Compound B2I064-01, 4-[4-[[3-(5-Ethoxypyridin-3-yl)-5-(trifluoromethoxy)phenyl]methyl]piperazin-1-yl]-N-methylsulfonylbenzamide]",0.0,0.0,–,–,–
"CCOc1cccc(-c2cc(CN3CCN(c4ccc(C(=O)NS(=O)(=O)CCC(F)(F)F)nn4)CC3)cc(C(F)(F)F)c2)c1 [Compound B2N087-01, 6-[4-[[3-(3-Ethoxyphenyl)-5-(trifluoromethyl)phenyl]methyl]piperazin-1-yl]-N-(3,3,3-trifluoropropylsulfonyl)pyridazine-3-carboxamide]",–,–,0.0,0.0,–
CCCNC(=O)c1ccc(N2CCN(Cc3cc(-c4cccc(OCC)c4)cs3)CC2)cc1 [Compound B1M067-01],–,–,–,–,"ASMS ratio (%) n = 1 (AS-MS, mixture of 1200 compounds/well, Bcl-2 protein, replicate n = 1): −1.6%; ASMS ratio (%) n = 2 [5]: −87.4%"

# Continued, in another order:
ASMS ratio (%) n = 1 [1] [%],ASMS ratio (%) n = 2 [2] [%],ASMS ratio (%) n = 1 [3] [%],ASMS ratio (%) n = 2 [4] [%],SMILES,also measured
–,–,7.5,7.7,"CCOc1cccc(-c2ccc(C(=O)N3CCN(c4ccc(C(=O)NS(=O)(=O)c5ccc(NCCSc6ccccc6)c(C(F)(F)F)c5)nn4)CC3)c3ccccc23)c1 [Compound B2R013-01, 6-[4-[4-(3-Ethoxyphenyl)naphthalene-1-carbonyl]piperazin-1-yl]-N-[4-(2-phenylsulfanylethylamino)-3-(trifluoromethyl)phenyl]sulfonylpyridazine-3-carboxamide]",–
0.0,–,–,–,"CCOc1cccc(C#Cc2ccccc2C(=O)N2CCN(c3ccc(C(=O)NS(=O)(=O)C(C)(C)C)cc3)CC2)c1 [Compound B2L029-01, N-tert-Butylsulfonyl-4-[4-[2-[2-(3-ethoxyphenyl)ethynyl]benzoyl]piperazin-1-yl]benzamide]",–
–,–,21.1,−8.8,CCOc1cccc(-c2cc(CN3CCN(c4ccc(C(=O)NS(=O)(=O)c5ccc(NCCSc6ccccc6)c(C(F)(F)F)c5)nn4)CC3)cc(OCC)c2)c1 [Compound B2R081-01],–
–,–,4.1,−0.5,"CCOc1cncc(-c2ccc(C(=O)N3CCN(c4ccc(C(=O)NS(=O)(=O)c5ccc(NCCSc6ccccc6)c(C(F)(F)F)c5)cc4)CC3)cc2F)c1 [Compound B2R028-01, 4-[4-[4-(5-Ethoxypyridin-3-yl)-3-fluorobenzoyl]piperazin-1-yl]-N-[4-(2-phenylsulfanylethylamino)-3-(trifluoromethyl)phenyl]sulfonylbenzamide]",–
0.0,0.0,–,–,CCOc1cncc(-c2cc(CN3CCN(c4ccc(C(=O)NS(=O)(=O)C(C)(C)C)cc4)CC3)cc(OC(F)(F)F)c2)c1 [Compound B2L064-01],–
0.0,0.0,–,–,"CCOc1cccc(C#Cc2cc(C(=O)N3CCN(c4ccc(C(=O)NS(C)(=O)=O)cc4)CC3)cc(C(F)(F)F)c2)c1 [Compound B2I041-01, 4-[4-[3-[2-(3-Ethoxyphenyl)ethynyl]-5-(trifluoromethyl)benzoyl]piperazin-1-yl]-N-methylsulfonylbenzamide]",–
–,–,6.3,−7.0,"CCOc1cccc(-c2cc(C(=O)N3CCN(c4ccc(C(=O)NS(=O)(=O)c5ccc(NCCSc6ccccc6)c(C(F)(F)F)c5)cc4)CC3)cc(C(C)(C)C)c2)c1 [Compound B2R037-01, 4-[4-[3-tert-Butyl-5-(3-ethoxyphenyl)benzoyl]piperazin-1-yl]-N-[4-(2-phenylsulfanylethylamino)-3-(trifluoromethyl)phenyl]sulfonylbenzamide]",–
–,–,1.7,−4.6,"CCOc1cncc(-c2ccc(C(=O)N3CCN(c4ccc(C(=O)NS(=O)(=O)c5ccc(NCCSc6ccccc6)c(C(F)(F)F)c5)cc4)CC3)cc2C)c1 [Compound B2R026-01, 4-[4-[4-(5-Ethoxypyridin-3-yl)-3-methylbenzoyl]piperazin-1-yl]-N-[4-(2-phenylsulfanylethylamino)-3-(trifluoromethyl)phenyl]sulfonylbenzamide]",–
–,–,0.0,0.0,"CCOc1cccc(-c2ccc(CN3CCN(c4ccc(C(=O)NS(=O)(=O)CCC(F)(F)F)cc4)CC3)cc2F)c1 [Compound B2N051-01, 4-[4-[[4-(3-Ethoxyphenyl)-3-fluorophenyl]methyl]piperazin-1-yl]-N-(3,3,3-trifluoropropylsulfonyl)benzamide]",–
0.0,0.0,–,–,"CCOc1cccc(-c2cc(C(=O)N3CCN(c4ccc(C(=O)NS(=O)(=O)C(C)(C)C)nn4)CC3)cc(C(C)(C)C)c2)c1 [Compound B2L015-01, 6-[4-[3-tert-Butyl-5-(3-ethoxyphenyl)benzoyl]piperazin-1-yl]-N-tert-butylsulfonylpyridazine-3-carboxamide]",–
–,–,0.0,0.0,"CCOc1cccc(C#Cc2cncc(C(=O)N3CCN(c4ccc(C(=O)NS(=O)(=O)CCC(F)(F)F)cc4)CC3)c2)c1 [Compound B2N031-01, 4-[4-[5-[2-(3-Ethoxyphenyl)ethynyl]pyridine-3-carbonyl]piperazin-1-yl]-N-(3,3,3-trifluoropropylsulfonyl)benzamide]",–
0.0,0.0,–,–,"CCOc1cccc(-c2cc(CN3CCN(c4ccc(C(=O)NS(=O)(=O)C(C)(C)C)cc4)CC3)cc(OC(F)(F)F)c2)c1 [Compound B2L063-01, N-tert-Butylsulfonyl-4-[4-[[3-(3-ethoxyphenyl)-5-(trifluoromethoxy)phenyl]methyl]piperazin-1-yl]benzamide]",–
–,0.0,–,–,"CCOc1cccc(-c2ccc(C(C)N3CCN(c4ccc(C(=O)NS(C)(=O)=O)cc4)CC3)c(F)c2)c1 (stereo not drawn) [Compound B2I099-01, 4-[4-[1-[4-(3-Ethoxyphenyl)-2-fluorophenyl]ethyl]piperazin-1-yl]-N-methylsulfonylbenzamide]",–
0.0,0.0,–,–,"CCOc1cccc(-c2ccc(CN3CCN(c4ccc(C(=O)NS(C)(=O)=O)cc4)CC3)c(OC)c2)c1 [Compound B2I053-01, 4-[4-[[4-(3-Ethoxyphenyl)-2-methoxyphenyl]methyl]piperazin-1-yl]-N-methylsulfonylbenzamide]",–
–,–,0.0,0.0,"CCOc1cccc(-c2ccc(C(=O)N3CCN(c4ccc(C(=O)NS(=O)(=O)CCC(F)(F)F)cc4)CC3)c3ccccc23)c1 [Compound B2N035-01, 4-[4-[4-(3-Ethoxyphenyl)naphthalene-1-carbonyl]piperazin-1-yl]-N-(3,3,3-trifluoropropylsulfonyl)benzamide]",–
0.0,0.0,–,–,"CCOc1cccc(-c2ccc(CN3CCN(c4ccc(C(=O)NS(C)(=O)=O)cc4)CC3)cc2F)c1 [Compound B2I051-01, 4-[4-[[4-(3-Ethoxyphenyl)-3-fluorophenyl]methyl]piperazin-1-yl]-N-methylsulfonylbenzamide]",–
